In assay [1] the test system is A498 renal cancer cells. As for the experimental part: (§1) The effective dose of NaB on renal cancer was determined by colorimetric tetrazolium (MTS) viability assay on renal cancer cells (ACHN and A498) and healthy renal cells (RPTEC). MTS (3-(4,5-dimethyl-thiazol-2-yl)-5-(3-carboxy-methoxy-phenyl)-2-(4-sulfo-phenyl)-2H-tetrazolium) is a colorimetric assay based on the tetrazolium salt. The assay measures the enzyme activity which reduces MTS to the purple formazan. Cell cultures incubated for two hours are read by measuring the absorbance at 490 nm wavelength by means of ELISA. The NaB compound is dissolved at different concentrations (at ratios of 500 μg/ml, 1000 μg/ml, 1500 μg/ml, 2000 μg/ml, 2500 μg/ml, 3000 μg/ml, 3500 μg/ml for renal cancer cells, and 500 μg/ml, 1000 μg/ml, 2500 μg/ml, 5000 μg/ml, 7000 μg/ml for healthy renal cells) in the medium suitable for the cell used (30 seconds of vortexing is applied after the addition of the agent), filtered through 0.22 micron filters, and sterilized. MTS assays are performed at hours 24, 48, and 72, and as a result, the concentrations of dead cells at the IC50 dose are determined and the next steps are continued with these dosages.

Assay [2] relates to ACHN renal cancer cells. As for the experimental part: as §1
For assay [3], the system named is renal cancer cells (ACHN and A498) and healthy renal cells (RPTEC). As to conditions: IC50 dose for cancer cells applied 72 hours; cancer vs healthy cells.
Experimental: Whether the death rates of renal cancer cells treated with the agent at the dosage determined by the MTS assay are dependent on apoptosis or not is determined by Annexin V assay. […] Annexin V binds to PSs, which were translocated to the outer surface of the cell, thereby making the apoptotic cell visible and it is measured by flow cytometry. Since Annexin V binding can also be observed on the surface of necrotic cells, Propidium Iodide (Red Fluorescence), which stains only dead cells, was added as a second stain. Cells, which are simultaneously stained with Annexin V-FITC (Green Fluorescence) and Propidium Iodide (Red Fluorescence), allow viable cells (FITC−PI−), early apoptotic cells (FITC+PI−), and late apoptotic or necrotic cells (FITC+PI+) to be distinguished from each other. Cells marked with Annexin V-FITCH-conjugated markers are analyzed by flow cytometry.
Assay [4] relates to ACHN and A498 renal cancer cells. Conditions: dosage determined by the MTS assay. For orientation: Formazan colour is commonly taken as a measure of viable cells.
Experimental: Cell proliferation analyses of renal cancer cells treated with the agent at the dosage determined by the MTS assay are performed by EdU (Ethinyl-2′-deoxyuridine) assay. […] For this assay, 10 uM EdU is applied to the cells cultured on slides placed in 6-well plates. Following the incubation, cells are fixed for 15 minutes with 3.7% formaldehyde diluted in PBS, and then washed with 3% BSA also diluted in PBS. Cell membrane permeability is increased by treatment with 0.5% nonionic surfactant diluted in PBS at room temperature for 20 minutes. After a final washing with 3% BSA solution, the reaction cocktail is added to the cells. Cells are incubated at room temperature for 30 minutes, and then the EdU-stained cells, which are actively synthesizing DNA, are observed under a confocal microscope.

pIC50: −log10 of the molar value. Like-named read-outs stand apart in the source and are kept apart here. A value given as a limit tells only on which side of the number the result lay.

Here are results for one substance from patent US20250325581A1, “USE OF SODIUM PENTABORATE PENTAHYDRATE AS A CHEMOTHERAPEUTIC AGENT” (YEDITEPE UNIVERSITESI, priority 2022, published 2025).

As to sodium pentaborate pentahydrate, the “IC50 determined by MTS” value was over 7000 mg/L in assay [1] (A498, Hour 24); 1900 mg/L in assay [1] (A498, Hour 48); over 7000 mg/L in assay [2] (Hour 24); 2000 mg/L in assay [2] (Hour 48). Further, the “IC50 determined by MTS (dose which killed 50% of renal cancer cells)” value in assay [1] (A498, Hour 72) amounted to 1400 mg/L; in assay [2] (Hour 72), 1550 mg/L. The pIC50 was 2.33 in assay [1] (read-out: dose which killed 50% of renal cancer cells, A498, molar equivalent of the μg/ml value) and 2.28 in assay [2] (read-out: dose which killed 50% of renal cancer cells, molar equivalent of the μg/ml value). For the same substance, in assay [3], the “programmed cell death (apoptosis)” value is listed as “selectively leads cancer cells to programmed cell death”. The “effect on cell proliferation” value in assay [4] was “slows down cell proliferation”.
